Measurements published in patent publication US9302999B2, “Substituted triazoles as herbicides” (E. I. DU PONT DE NEMOURS AND COMPANY, priority 2012, dated 2016).

Legend:
Assay type in all cases: in vivo
[1] = test system: ducksalad (Heteranthera limosa); experiment: Test C flooded paddy test: ducksalad; settings: scale 0 to 100 (0 no effect, 100 complete control)
In short: (§1)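 2-leaf stage plants; pots flooded 3 cm above soil; compound applied into paddy water, depth maintained. Greenhouse 13–15 d. Visual rating vs controls, 0–100 (0 = no effect, 100 = complete control); dash = no result.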

[2] = test system: sedge, umbrella (small-flower umbrella sedge, Cyperus difformis); experiment: Test C flooded paddy test: sedge, umbrella; settings: scale 0 to 100 (0 no effect, 100 complete control)
In short: as §1

[3] = test system: foxtail, giant (giant foxtail, Setaria faberii); experiment: Test A pre-/postemergence: foxtail, giant
In short: (§2)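 Pre: directed soil spray after planting in loam + sand. Post: same formulation (non-phytotoxic solvent + surfactant) on 1–2-leaf plants, 2–10 cm. Greenhouse ~10 d; visual injury 0–100 vs untreated.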

[4] = test system: barnyardgrass (Echinochloa crus-galli); experiment: Test C flooded paddy test: barnyardgrass; settings: scale 0 to 100 (0 no effect, 100 complete control)
In short: as §1

[5] = test system: crabgrass, large (large crabgrass, Digitaria sanguinalis); experiment: Test A pre-/postemergence: crabgrass, large
In short: as §2

rice (Oryza sativa) = experiment: Test C flooded paddy test: rice; settings: scale 0 to 100 (0 no effect, 100 complete control)
In short: as §1

[6] = test system: pigweed (Amaranthus retroflexus); experiment: Test A pre-/postemergence: pigweed
In short: as §2

[7] = test system: morningglory (Ipomoea spp.); experiment: Test A pre-/postemergence: morningglory
In short: as §2

corn (Zea mays) = experiment: Test A pre-/postemergence: corn
In short: as §2

[8] = test system: barnyardgrass (Echinochloa crus-galli); experiment: Test A pre-/postemergence: barnyardgrass
In short: as §2

[9] = test system: velvetleaf (Abutilon theophrasti); experiment: Test A pre-/postemergence: velvetleaf
In short: as §2

[10] = test system: wheat (Triticum aestivum); experiment: Test A pre-/postemergence: wheat
In short: as §2

[11] = Flood (flooded paddy test), 250 g ai/ha, visual rating after 13 to 15 days
[12] = Postemergence, 1000 g ai/ha, visual rating on 0 to 100 scale (0 no effect, 100 complete control), approximately ten days
[13] = Preemergence, 1000 g ai/ha, 0 to 100 scale, 0 is no effect, 100 is complete control
[14] = Flood (flooded paddy test), 125 g ai/ha, visual rating after 13 to 15 days
[15] = Postemergence, 125 g ai/ha, 0 to 100 scale, 0 is no effect, 100 is complete control
[16] = Postemergence, 500 g ai/ha, visual rating on 0 to 100 scale (0 no effect, 100 complete control), approximately ten days
[17] = Preemergence, 125 g ai/ha, 0 to 100 scale where 0 is no effect and 100 is complete control
[18] = Preemergence, 500 g ai/ha, 0 to 100 scale (0 no effect, 100 complete control)
[19] = Flood (flooded paddy test), 62 g ai/ha, visual rating after 13 to 15 days
[20] = Preemergence, 125 g ai/ha, 0 to 100 scale (0 no effect, 100 complete control)
[21] = Preemergence, 500 g ai/ha, 0 to 100 scale, 0 is no effect, 100 is complete control

Cc1nn(-c2ccc(C(F)(F)F)cc2)nc1Cn1cnc(C(F)(F)F)c1 [Compound 96]
Plant response rating, Ducksalad [1, 11]: 50
Plant response rating, Ducksalad ([1]; Flood, 62 g ai/ha): 40
Plant response rating, Sedge, Umbrella [2, 11]: 80
Plant response rating, Sedge, Umbrella ([2]; Flood, 62 g ai/ha): 75
Foxtail, Giant plant response rating [3, 12]: 60
Foxtail, Giant plant response rating [3, 13]: 90
Plant response rating, Barnyardgrass [4, 11]: 10
Plant response rating, Barnyardgrass ([4]; Flood, 62 g ai/ha): 10
Crabgrass, Large plant response rating [5, 12]: 70
Crabgrass, Large plant response rating [5, 13]: 100
Plant response rating, Rice (rice (Oryza sativa); [11]): 0
Plant response rating, Rice (rice (Oryza sativa); Flood, 62 g ai/ha): 0
Pigweed plant response rating [6, 12]: 90
Pigweed plant response rating [6, 13]: 100
Morningglory plant response rating [7, 12]: 80
Morningglory plant response rating [7, 13]: 40
Corn plant response rating (corn (Zea mays); [12]): 30
Corn plant response rating (corn (Zea mays); [13]): 0
Barnyardgrass plant response rating [8, 12]: 40
Barnyardgrass plant response rating [8, 13]: 70
Velvetleaf plant response rating [9, 12]: 70
Velvetleaf plant response rating [9, 13]: 0
Wheat plant response rating [10, 12]: 30
Wheat plant response rating [10, 13]: 0

Cc1nn(-c2ccc(F)cc2)nc1Oc1cc(C(F)(F)F)nn1C [Compound 126]
Plant response rating, Ducksalad [1, 14]: 20
Plant response rating, Ducksalad [1, 11]: 65
Plant response rating, Ducksalad ([1]; Flood, 31 g ai/ha): 0
Plant response rating, Ducksalad ([1]; Flood, 62 g ai/ha): 0
Plant response rating, Sedge, Umbrella [2, 14]: 75
Plant response rating, Sedge, Umbrella [2, 11]: 80
Plant response rating, Sedge, Umbrella ([2]; Flood, 31 g ai/ha): 30
Plant response rating, Sedge, Umbrella ([2]; Flood, 62 g ai/ha): 40
Foxtail, Giant plant response rating [3, 15]: 60
Foxtail, Giant plant response rating [3, 16]: 90
Plant response rating, Foxtail, Giant [3, 17]: 70
Plant response rating, Foxtail, Giant [3, 18]: 90
Plant response rating, Barnyardgrass [4, 14]: 30
Plant response rating, Barnyardgrass [4, 11]: 40
Plant response rating, Barnyardgrass ([4]; Flood, 31 g ai/ha): 0
Plant response rating, Barnyardgrass ([4]; Flood, 62 g ai/ha): 0
Crabgrass, Large plant response rating [5, 15]: 90
Crabgrass, Large plant response rating [5, 16]: 90
Plant response rating, Crabgrass, Large [5, 17]: 100
Plant response rating, Crabgrass, Large [5, 18]: 100
Plant response rating, Rice (rice (Oryza sativa); [14]): 10
Plant response rating, Rice (rice (Oryza sativa); [11]): 20
Plant response rating, Rice (rice (Oryza sativa); Flood, 31 g ai/ha): 0
Plant response rating, Rice (rice (Oryza sativa); Flood, 62 g ai/ha): 0
Pigweed plant response rating [6, 15]: 100
Pigweed plant response rating [6, 16]: 100
Plant response rating, Pigweed [6, 17]: 100
Plant response rating, Pigweed [6, 18]: 100
Morningglory plant response rating [7, 15]: 70
Morningglory plant response rating [7, 16]: 80
Plant response rating, Morningglory [7, 17]: 10
Plant response rating, Morningglory [7, 18]: 30
Corn plant response rating (corn (Zea mays); [15]): 20
Corn plant response rating (corn (Zea mays); [16]): 30
Plant response rating, Corn (corn (Zea mays); [17]): 0
Plant response rating, Corn (corn (Zea mays); [18]): 20
Barnyardgrass plant response rating [8, 15]: 20
Barnyardgrass plant response rating [8, 16]: 70
Plant response rating, Barnyardgrass [8, 17]: 70
Plant response rating, Barnyardgrass [8, 18]: 80
Velvetleaf plant response rating [9, 15]: 40
Velvetleaf plant response rating [9, 16]: 80
Plant response rating, Velvetleaf [9, 17]: 10
Plant response rating, Velvetleaf [9, 18]: 40
Wheat plant response rating [10, 15]: 10
Wheat plant response rating [10, 16]: 20
Plant response rating, Wheat [10, 17]: 0
Plant response rating, Wheat [10, 18]: 0

Cc1nn(-c2ccc(C(F)(F)F)cc2)nc1Cn1cc(C(F)(F)F)cn1 [Compound 32]
Plant response rating, Ducksalad [1, 19]: 0
Plant response rating, Ducksalad [1, 14]: 0
Plant response rating, Ducksalad [1, 11]: 0
Plant response rating, Ducksalad ([1]; Flood, 31 g ai/ha): 0
Plant response rating, Sedge, Umbrella [2, 19]: 0
Plant response rating, Sedge, Umbrella [2, 14]: 0
Plant response rating, Sedge, Umbrella [2, 11]: 0
Plant response rating, Sedge, Umbrella ([2]; Flood, 31 g ai/ha): 0
Foxtail, Giant plant response rating [3, 15]: 10
Foxtail, Giant plant response rating [3, 16]: 20
Plant response rating, Foxtail, Giant [3, 20]: 10
Plant response rating, Foxtail, Giant [3, 21]: 80
Plant response rating, Barnyardgrass [4, 19]: 0
Plant response rating, Barnyardgrass [4, 14]: 0
Plant response rating, Barnyardgrass [4, 11]: 0
Plant response rating, Barnyardgrass ([4]; Flood, 31 g ai/ha): 0
Crabgrass, Large plant response rating [5, 15]: 20
Crabgrass, Large plant response rating [5, 16]: 30
Plant response rating, Crabgrass, Large [5, 20]: 10
Plant response rating, Crabgrass, Large [5, 21]: 30
Plant response rating, Rice (rice (Oryza sativa); [19]): 0
Plant response rating, Rice (rice (Oryza sativa); [14]): 0
Plant response rating, Rice (rice (Oryza sativa); [11]): 0
Plant response rating, Rice (rice (Oryza sativa); Flood, 31 g ai/ha): 0
Pigweed plant response rating [6, 15]: 60
Pigweed plant response rating [6, 16]: 100
Plant response rating, Pigweed [6, 20]: 0
Plant response rating, Pigweed [6, 21]: 70
Morningglory plant response rating [7, 15]: 10
Morningglory plant response rating [7, 16]: 50
Plant response rating, Morningglory [7, 20]: 0
Plant response rating, Morningglory [7, 21]: 0
Corn plant response rating (corn (Zea mays); [15]): 0
Corn plant response rating (corn (Zea mays); [16]): 10
Plant response rating, Corn (corn (Zea mays); [20]): 0
Plant response rating, Corn (corn (Zea mays); [21]): 0
Barnyardgrass plant response rating [8, 15]: 10
Barnyardgrass plant response rating [8, 16]: 10
Plant response rating, Barnyardgrass [8, 20]: 0
Plant response rating, Barnyardgrass [8, 21]: 0
Velvetleaf plant response rating [9, 15]: 20
Velvetleaf plant response rating [9, 16]: 20
Plant response rating, Velvetleaf [9, 20]: 0
Plant response rating, Velvetleaf [9, 21]: 0
Wheat plant response rating [10, 15]: 0
Wheat plant response rating [10, 16]: 0
Plant response rating, Wheat [10, 20]: 0
Plant response rating, Wheat [10, 21]: 0

Cc1nn(-c2ccc(F)cc2)nc1Cn1ccc(C(F)(F)F)n1 [Compound 95]
Plant response rating, Ducksalad [1, 11]: 0
Plant response rating, Ducksalad ([1]; Flood, 62 g ai/ha): 0
Plant response rating, Sedge, Umbrella [2, 11]: 0
Plant response rating, Sedge, Umbrella ([2]; Flood, 62 g ai/ha): 0
Foxtail, Giant plant response rating [3, 12]: 60
Foxtail, Giant plant response rating [3, 13]: 100
Plant response rating, Barnyardgrass [4, 11]: 0
Plant response rating, Barnyardgrass ([4]; Flood, 62 g ai/ha): 0
Crabgrass, Large plant response rating [5, 12]: 80
Crabgrass, Large plant response rating [5, 13]: 100
Plant response rating, Rice (rice (Oryza sativa); [11]): 0
Plant response rating, Rice (rice (Oryza sativa); Flood, 62 g ai/ha): 0
Pigweed plant response rating [6, 12]: 100
Pigweed plant response rating [6, 13]: 90
Morningglory plant response rating [7, 12]: 60
Morningglory plant response rating [7, 13]: 0
Corn plant response rating (corn (Zea mays); [12]): 30
Corn plant response rating (corn (Zea mays); [13]): 10
Barnyardgrass plant response rating [8, 12]: 60
Barnyardgrass plant response rating [8, 13]: 50
Velvetleaf plant response rating [9, 12]: 70
Velvetleaf plant response rating [9, 13]: 40
Wheat plant response rating [10, 12]: 0
Wheat plant response rating [10, 13]: 0

COc1nn(-c2ccc(C(F)(F)F)cc2)nc1Cn1cnc(C(F)(F)F)n1 [Compound 18]
Plant response rating, Ducksalad [1, 19]: 0
Plant response rating, Ducksalad [1, 14]: 0
Plant response rating, Ducksalad [1, 11]: 0
Plant response rating, Ducksalad ([1]; Flood, 31 g ai/ha): 0
Plant response rating, Sedge, Umbrella [2, 19]: 0
Plant response rating, Sedge, Umbrella [2, 14]: 40
Plant response rating, Sedge, Umbrella [2, 11]: 65
Plant response rating, Sedge, Umbrella ([2]; Flood, 31 g ai/ha): 0
Foxtail, Giant plant response rating [3, 15]: 30
Foxtail, Giant plant response rating [3, 16]: 70
Plant response rating, Foxtail, Giant [3, 20]: 80
Plant response rating, Foxtail, Giant [3, 21]: 90
Plant response rating, Barnyardgrass [4, 19]: 0
Plant response rating, Barnyardgrass [4, 14]: 0
Plant response rating, Barnyardgrass [4, 11]: 0
Plant response rating, Barnyardgrass ([4]; Flood, 31 g ai/ha): 0
Crabgrass, Large plant response rating [5, 15]: 60
Crabgrass, Large plant response rating [5, 16]: 80
Plant response rating, Crabgrass, Large [5, 20]: 90
Plant response rating, Crabgrass, Large [5, 21]: 90
Plant response rating, Rice (rice (Oryza sativa); [19]): 0
Plant response rating, Rice (rice (Oryza sativa); [14]): 0
Plant response rating, Rice (rice (Oryza sativa); [11]): 0
Plant response rating, Rice (rice (Oryza sativa); Flood, 31 g ai/ha): 0
Pigweed plant response rating [6, 15]: 100
Pigweed plant response rating [6, 16]: 100
Plant response rating, Pigweed [6, 20]: 80
Plant response rating, Pigweed [6, 21]: 100
Morningglory plant response rating [7, 15]: 80
Morningglory plant response rating [7, 16]: 90
Plant response rating, Morningglory [7, 20]: 10
Plant response rating, Morningglory [7, 21]: 50
Corn plant response rating (corn (Zea mays); [15]): 20
Corn plant response rating (corn (Zea mays); [16]): 30
Plant response rating, Corn (corn (Zea mays); [20]): 0
Plant response rating, Corn (corn (Zea mays); [21]): 0
Barnyardgrass plant response rating [8, 15]: 50
Barnyardgrass plant response rating [8, 16]: 60
Plant response rating, Barnyardgrass [8, 20]: 20
Plant response rating, Barnyardgrass [8, 21]: 30
Velvetleaf plant response rating [9, 15]: 70
Velvetleaf plant response rating [9, 16]: 80
Plant response rating, Velvetleaf [9, 20]: 20
Plant response rating, Velvetleaf [9, 21]: 30
Wheat plant response rating [10, 15]: 20
Wheat plant response rating [10, 16]: 30
Plant response rating, Wheat [10, 20]: 0
Plant response rating, Wheat [10, 21]: 0
